In brackets after ≈: the same amount, converted by molar mass. Several values for one entry are separate records, joined by “and”; a condition that tells them apart may be missing. Equal entries are not always repeated.
Assays:
SK-N-MC cells = experiment: MTT survival assay on SK-N-MC brain cancer cells; type: cell-based; settings: Homo sapiens, 48 hours
Procedure: The NCI anti-cancer drug screen model was adopted to test anti-cancer effect of the exemplary compounds from Example 1. The isolated compound 1 from Example 1 was added into the culture media of brain-cancer cells, SK-N-MC, to test for tumor cell survival by MTT assay.
(§1) MTT assay is commonly used to determine cell proliferation, percent of viable cells, and cytotoxicity. MTT (3-[4,5-dimethylthiazol-2-yl]2,5-diphenyltetrazolium bromide) is a yellow dye, which can be absorbed by the living cells and be reduced to purplish blue formazan crystals by succinate tetrazolium reductase in mitochondria. Formazan formation can therefore be used to assess and determine the survival rate of cells.
SK-N-MC cells were suspended and cultured in 10% fetal bovine serum (Life Technologies Inc.) culture medium containing 1% penicillin and 1% streptomycin. The cells were incubated under 5% CO2, 37° C. for 24 hours. After cell proliferation, the cells were washed once with PBS, treated with the trypsin-EDTA, and then centrifuged at 1,200 rpm for 5 minutes to separate cells from supernatant. The cells were re-suspended in fresh culture medium (10 mL) and placed in 96 well plates.
(§2) To each of the 96 well plates containing SK-N-MC, 0.003, 0.01, 0.03, 0.1, and 0.3 μg/ml of compound 1 were add. The 96 well plates were incubated at 37° C., 5% CO2 for 48 hours. Subsequently, in the dark environment to each well of the plates were added 2.5 mg/ml of MTT. The reaction was terminated by addition of 100 μl of lysis buffer after 4 hours. The survival rate of cells was calculated based on the measurement of absorption at the 570 nm wavelength by enzyme immunoassay analyzer. The half maximal inhibitory concentration (IC50) values of compound 1 on SK-N-MC was 0.05 μg/mL. Similarly, another exemplary cancer cell lines, U373MG, were used.

U373MG = experiment: MTT survival assay on U373MG cancer cells; type: cell-based; settings: Homo sapiens, U373 MG, read-out: half maximal inhibitory concentration (IC50)
Excerpt: as §1, §2

[1] = Determination of Compound 1 in mice brain by LC/MS/MS; type: in vivo; settings: male CD-1 mice fed 1 mg/g in 0.5% methylcellulose, brain removed after 15 minute; individual brains 1-3
Procedure: The concentration of compound 1 in brain samples was analyzed by LC/MS/MS spectrometer. Experiments were performed on male CD-1 derived mice weighing 24±2 g (Biolasco Taiwan). The CD-1 mice were fed with 1 mg/g Compound 1 in 0.5% methylcellulose (concentration is 2 mg/mL). The brains of the CD-1 mice were removed after 15 minute and extracted with CH3CN and then centrifuged to prepare supernatant that was analyzed by LC/MS/MS.

For COC1=C(OC)C(O)C(C/C=C(\C)CC/C=C(\C)CCC=C(C)C)C(C)C1=O (centres unmarked) [Compound 1, 4-hydroxy-2,3-dimethoxy-6-methyl-5-(3,7,11-trimethyldodeca-2,6,10-trienyl)cyclohex-2-enone], the viability at 0.003 µg/mL (SK-N-MC cells; 0.003 μg/ml, read-out: Cell viability rate mean) was 86.3%, the viability at 0.01 µg/mL (SK-N-MC cells; 0.01 μg/ml, read-out: Cell viability rate mean) was 76.6% and the viability at 0.03 µg/mL (SK-N-MC cells; 0.03 μg/ml, read-out: Cell viability rate mean) was 63.2%. For the same compound, the viability at 0.1 µg/mL (SK-N-MC cells; 0.1 μg/ml, read-out: Cell viability rate mean) was 32.9%, the viability at 0.3 µg/mL (SK-N-MC cells; 0.3 μg/ml, read-out: Cell viability rate mean) was 23% and the IC50 (SK-N-MC cells; read-out: half maximal inhibitory concentration (IC50)) was 0.05 µg/mL (≈ 0.128 µM). For the same compound, the IC50 (U373MG) was 5.88 µg/mL (≈ 15.1 µM) and the Brain concentration [1] was 30.13 µg/g and 7.59 µg/g and 24.28 µg/g.

Source: patent publication US20130158113A1, “METHODS AND COMPOSITIONS FOR TREATING BRAIN CANCER” (Golden Biotechnology Corporation, priority 2011, published 2013)
